Patent US20240209014A1, “NOVEL SPINOSYN PRODRUGS” (Acies Bio d.o.o., priority 2021, published 2024)
≈ marks a conversion by molar mass, not a printed value. Like-named read-outs stand apart in the source and are kept apart here.

Key:
[1] = Stability of J1Aa and J7a at different pH values (LC-MS); type: physicochemical
Description: Stability of compounds J1Aa and J7a was evaluated at different pH values. Differential stability/conversion to the active ingredient is expected to result in condition-specific activation and thereby to higher specificity towards target pests.
Stock solutions of the compounds were prepared at concentration of 0.1 mol/L. 10 μL of the stock solutions were transferred to 0.75 ml of the buffer solutions with pH values of 4, 5, 9 and 11. […] After specified times samples were analyzed using LC-MS. The compounds J1Aa and J7a and the active compound spinosyn A were quantified. It is seen that the two compounds are converted to the active form preferably in alkaline conditions.

[2] = test system: honey bees (Apis melifera carnica, Pollman 1879); test: Single dose acute oral toxicity test on adult worker honey bees; type: in vivo
Description: Toxicity of the compounds of this invention towards honey bees (Apis melifera carnica, Pollman 1879) was assessed in comparison with commercially available samples of spinosad (LGC (Dr. Ehrenstorfer); Product code: DRE-C16972830) and the naturally produced compound butenyl spinosyn alpha 1. Solutions of spinosyn compounds were prepared in 100 mM ammonium acetate, pH=5, and later diluted in 50% (500 g/L) sucrose solution in water to final concentrations. Two final concentrations were used for each compound, 7.76 μmol/L and 15.53 μmol/L.
Single dose acute oral toxicity tests were conducted on adult worker bees according to previously described standard methods (Medrzycki at el., (2013)). Each compound and condition were tested in two parallels. Briefly, each parallel experiment consisted of 5 cages with 20 honey bees per cage. […] After uptake of the solutions honey bees were supplied with standard 50% sucrose solution and observed at 24 h and 48 h and the number of dead and live bees was estimated.
Ammonium acetate solution with pH 5 was used as the negative control.

[3] = Kinetic solubility assay; type: physicochemical; settings: dose conc 200 μM, 25±2° C.
Description: Solubility of the compounds of the invention was assessed using kinetic solubility assay and compared to solubility of butenyl spinosyn. Stock solutions of spinosyn compounds were prepared in DMSO at mM concentration). 10 uL of the stock solutions were added into 490 of in K.S. 5.4 buffer of pH 5.4 (80 mM phosphoric acid, acetic acid, boric acid buffer, adjusted the pH to pH 5.4 with 1 N HCl and 1N NaOH) or K.S. 7.4 buffer with pH of 7.4 (80 mM phosphoric acid, acetic acid, boric acid buffer, adjusted the pH to pH 7.4 with 1 N HCl and 1N NaOH). The solutions were incubated with shaking at room […] temperature (25±2° C.) for 24 hours. 200 uL of each solution were then transferred into a new MultiScreen filter plate (Membrane of polycarbonate) and filtered by millipore vacuum manifold, and the filtrate was collected. The concentrtions of tested compounds in the filtered samples were analyzed by HPLC analysis calibrated by a standard curve generated by injection of 3 standard solutions of the relevant compound with concentrations of 1, 20, 200 μM.

[4] = test system: larvae of Ostrinia nubilialis (development stage L1); test: Insecticide efficacy, corn leaf dip, Henderson-Tilton method; type: in vivo
Description: Insecticide activities of the compounds of this invention were assessed in comparison with commercially available samples of spinosad (LGC (Dr. Ehrenstorfer); Product code: DRE-C16972830) and spinetoram (LGC (Dr. Ehrenstorfer); Product code: DRE-C16972770). Solutions of spinosyn compounds were prepared by adding 0.05% Tween 80, lowering pH to 5.95 and sonicating. Two concentrations of each compound were used, 0.1 μg/ml and 0.3 μg/mL, with each condition tested in four parallels.
Freshly collected corn leaves were dipped into the prepared solutions. After dipping leaves were left to dry at room temperature for 1 hour. Each dry leaf was then infested with 4 larvae of Ostrinia nubilialis (development stage L1), and the experimental device was incubated at 21° C.-23° C. for 24 h in order to optimize insect development. At three timings post infestation (1 day, 3 days and 6 days), the insecticide efficacy is evaluated from the number of living larvae using the Henderson-Tilton method. Untreated control was integrated for normalization and validation of larvae health.

[5] = single oral dose 0.078 nmol/bee, 24 h after application
[6] = single oral dose 0.078 nmol/bee, 48 h after application
[7] = single oral dose 0.155 nmol/bee, 24 h after application
[8] = single oral dose 0.155 nmol/bee, 48 h after application

Question: For `CC[C@H]1CCC[C@H](OC2CCC([N+](C)(C)COC(=O)OC(C)C)C(C)O2)[C@@H](C)C(=O)C2=C[C@@H]3[C@@H](C=C[C@@H]4C[C@@H](OC5OC(C)C(OC)C(OC)C5OC)C[C@@H]34)[C@@H]2CC(=O)O1` (stereo partly drawn) [Compound J7a], which “Compound (J1Aa/J7a) Area % remaining” value ([1]; buffer pH 4, 0.16 h) is on record?
Answer: 92.1%

Question: What about the “SPN Area % (active spinosyn A released)” value ([1]; buffer pH 4, 0.16 h) of the same compound?
Answer: 7.9%

Question: And the “Compound (J1Aa/J7a) Area % remaining” value ([1]; buffer pH 4, 6 h)?
Answer: 91.6%

Question: What about the “SPN Area % (active spinosyn A released)” value ([1]; buffer pH 4, 6 h) of the same compound?
Answer: 8.4%

Question: What about the “Compound (J1Aa/J7a) Area % remaining” value ([1]; buffer pH 4, 12 h) of the same compound?
Answer: 91.3%

Question: What about the “SPN Area % (active spinosyn A released)” value ([1]; buffer pH 4, 12 h) of the same compound?
Answer: 8.7%

Question: And the “Compound (J1Aa/J7a) Area % remaining” value ([1]; buffer pH 4, 24 h)?
Answer: 90.7%

Question: What about the “SPN Area % (active spinosyn A released)” value ([1]; buffer pH 4, 24 h) of the same compound?
Answer: 9.3%

Question: And the “Compound (J1Aa/J7a) Area % remaining” value ([1]; buffer pH 5, 0.16 h)?
Answer: 91.8%

Question: What about the “SPN Area % (active spinosyn A released)” value ([1]; buffer pH 5, 0.16 h) of the same compound?
Answer: 8.2%

Question: And the “Compound (J1Aa/J7a) Area % remaining” value ([1]; buffer pH 5, 6 h)?
Answer: 90.9%

Question: And the “SPN Area % (active spinosyn A released)” value ([1]; buffer pH 5, 6 h)?
Answer: 9.1%

Question: What about the “Compound (J1Aa/J7a) Area % remaining” value ([1]; buffer pH 5, 12 h) of the same compound?
Answer: 90.3%

Question: And the “SPN Area % (active spinosyn A released)” value ([1]; buffer pH 5, 12 h)?
Answer: 9.7%

Question: What about the “Compound (J1Aa/J7a) Area % remaining” value ([1]; buffer pH 5, 24 h) of the same compound?
Answer: 89.0%

Question: And the “SPN Area % (active spinosyn A released)” value ([1]; buffer pH 5, 24 h)?
Answer: 11.0%

Question: And the “Compound (J1Aa/J7a) Area % remaining” value ([1]; buffer pH 9, 0.16 h)?
Answer: 44.4%

Question: What about the “SPN Area % (active spinosyn A released)” value ([1]; buffer pH 9, 0.16 h) of the same compound?
Answer: 55.6%

Question: What about the “Compound (J1Aa/J7a) Area % remaining” value ([1]; buffer pH 9, 6 h) of the same compound?
Answer: 0.0%

Question: What about the “SPN Area % (active spinosyn A released)” value ([1]; buffer pH 9, 6 h) of the same compound?
Answer: 100.0%

Question: What about the “Compound (J1Aa/J7a) Area % remaining” value ([1]; buffer pH 11, 0.16 h) of the same compound?
Answer: 0.1%

Question: And the “SPN Area % (active spinosyn A released)” value ([1]; buffer pH 11, 0.16 h)?
Answer: 99.9%

Question: What about the “% of surviving honey bees” value [2, 5] of the same compound?
Answer: 96%

Question: What about the “% of surviving honey bees” value [2, 6] of the same compound?
Answer: 88%

Question: What about the “% of surviving honey bees” value [2, 7] of the same compound?
Answer: 97%

Question: And the “% of surviving honey bees” value [2, 8]?
Answer: 68%

Question: Which solubility kinetic at 24 h ([3]; K.S. 5.4 buffer, read-out: Kinetic Solubility pH = 5.4) does the source give for `CC/C=C/[C@H]1CCC[C@H](OC2CCC(N(C)C)C(C)O2)[C@@H](C)C(=O)C2=C[C@@H]3[C@@H](C=C[C@@H]4C[C@@H](OC5OC(C)C(OC)C(OC)C5OC)C[C@@H]34)[C@@H]2CC(=O)O1` (stereo partly drawn) [butenyl spinosyn, Butenyl spinosyn α1, reference compound] here?
Answer: 183.17 µM (≈ 139 µg/mL)

Question: What about the solubility kinetic at 24 h ([3]; K.S. 7.4 buffer, read-out: Kinetic Solubility pH = 7.4) of the same compound?
Answer: 3.52 µM (≈ 2.67 µg/mL)

Question: And the “toxicity to honey bees compared to corresponding derivatives (in words)” value ([2]; acute oral toxicity test)?
Answer: higher toxicity to honey bees

Question: And the “% of surviving honey bees” value [2, 5]?
Answer: 73%

Question: And the “% of surviving honey bees” value [2, 6]?
Answer: 53%

Question: And the “% of surviving honey bees” value [2, 7]?
Answer: 42%

Question: What about the “% of surviving honey bees” value [2, 8] of the same compound?
Answer: 18%

Question: Which “% Efficacy” value ([4]; dose 0.1 μg a.i./ml, 1 day post infestation) does the source give for “spinetoram [Spinoteram, reference compound]” here?
Answer: 27%

Question: What about the “% Efficacy” value ([4]; dose 0.1 μg a.i./ml, 3 days post infestation) of the same compound?
Answer: 60%

Question: What about the “% Efficacy” value ([4]; dose 0.1 μg a.i./ml, 6 days post infestation) of the same compound?
Answer: 85%

Question: And the “% Efficacy” value ([4]; dose 0.3 μg a.i./ml, 1 day post infestation)?
Answer: 31%

Question: What about the “% Efficacy” value ([4]; dose 0.3 μg a.i./ml, 3 days post infestation) of the same compound?
Answer: 86%

Question: What about the “% Efficacy” value ([4]; dose 0.3 μg a.i./ml, 6 days post infestation) of the same compound?
Answer: 97%
